In a compilation of properties of binary mixtures (doi:10.1007/s10953-017-0608-9) one finds electrical conductivity and viscosity data, which are given here for 1 compound.

SMILES strings stand for the structures. Values joined by “and” are separate entries in the source; they are usually repeats but may differ in a detail not shown here. Equal entries are not always repeated.

This series can be described thus: xn = mol fraction of the nth substance listed. The conditions noted are these: 101 kPa.

For `CCCCCCCCn1cc[n+](C)c1.[Br-]` + O, the electrical conductivity by setting is: (288.15 K, x1 = 0.0001) 0.029 S/m and 0.0557 S/m; (288.15 K, x1 = 0.0002) 0.0822 S/m; (298.15 K, x1 = 0.0001) 0.0353 S/m and 0.0696 S/m; (308.15 K, x1 = 0.0001) 0.0426 S/m and 0.0846 S/m. Besides, the viscosity (288.15 K, x1 = 0.0002) is listed as 1.158 mPa·s; the viscosity (298.15 K, x1 = 0.0001) is on record as 0.896 mPa·s; the viscosity (308.15 K, x1 = 0.0001) was 0.725 mPa·s and 0.73 mPa·s.
